Measured values: article PMC10447463, “Data-mining unveils structure–property–activity correlation of viral infectivity enhancing self-assembling peptides” (Nature Communications, 2023)
Values joined by “and” are separate entries in the source; they are usually repeats but may differ in a detail not shown here. Equal entries are not always repeated. Where two headings read alike, the source gives them in different places.

How the values were obtained:
[1] = Turbidity, derived count rate of scattered light; type: physicochemical; settings: for Log Count Rate: log of derived count rate; for Count Rate: turbidity
Summary of the method: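 One-day room-temperature aggregation at 1 mg/mL in PBS (pH 7.4) preceded measurement; samples then went into 1 mM KCl. Triplicates per sample, two independent experiments averaged.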

[2] = β-sheet content by ATR-FT-IR; type: physicochemical
Summary of the method: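 Measurements on freeze-dried PNF powders used a diamond ATR element, 64 scans each, with β-sheet fraction derived as previously reported. CR reflects loss of fluorescamine-reactive monomer after 3 kDa ultrafiltration, averaged over triplicates.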

[3] = Zeta-potential measurement; type: physicochemical; settings: for Zeta-pot. / mV: zeta potential of peptide, Fig S15 source data
Summary of the method: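 PBS pH 7.4, 1 mg/mL peptide (DMSO stock), 1 d RT aggregation; diluted in 1 mM KCl pre-read; mobility → zeta (Smoluchowski); n = 3, 2 expts averaged.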

[4] = test system: HIV-1 infection of TZM-bl cells; experiment: HIV-1 infectivity enhancement assay, β-galactosidase luminescence; type: cell-based; settings: for Rel-to EFC / n-fold to virus: Fig S8 panels B, D; for Log10 Inf. rel. to EF-C: log10 of HIV-1 infection of TZM-bl cells relative to EF-C, Fig S15 source data, asymmetric std dev errors
[5] = Fig S8 panels A, C, asymmetric log errors
[6] = Fig S8 panels B, D, derived count rate of scattered light
[7] = category 1 or 0 derived from the count rate, key not given
[8] = category 1 or 0 from count rate, key not given
[9] = derived count rate of scattered light
[10] = derived count rate of scattered light, mean, std deviation in next column
[11] = category derived from the zeta potential
[12] = Feb2021, Log10 of infectivity relative to EF-C
[13] = Feb2021, figures match the 1.3 µM column
[14] = Feb2021, infectivity enhancement relative to EF-C
[15] = Feb2021, infectivity relative to virus only
[16] = Feb2021, log10 of infectivity relative to EF-C
[17] = Feb2021, n-fold enhancement relative to EF-C
[18] = Feb2021, n-fold infectivity relative to EF-C
[19] = infectivity enhancement relative to EF-C
[20] = infectivity n-fold relative to virus alone
[21] = infectivity class (low / medium / high) of each library peptide, main list in c1-c6, same classes repeated in sub-lists of sequences containing the hydrophobicity/charge patterns P+,H0,P+,H0,P0,H0,P0, P+,H0,P0,H0,P0,H0,P0, P+,H0,P0,H0
[22] = infectivity class (low / medium / high) of the peptide in the sequence-pattern analysis, Fig. S22-A4, class limits not given
[23] = derived count rate from zeta measurement, mean
[24] = derived count rate of scattered light, mean, std deviation in separate column
[25] = Feb2021 run, infectivity n-fold relative to virus alone
[26] = Feb2021 run, log10 of infectivity relative to EF-C
[27] = Feb2021 run, n-fold infectivity relative to EF-C
[28] = infectivity enhancement relative to EF-C (=1), Feb2021 run
[29] = infectivity n-fold relative to virus only, Feb2021 run
[30] = log10 of infectivity relative to EF-C, Feb2021 run
[31] = Feb2021, 1.3 µM value relative to virus only (0 µM)
[32] = Feb2021, unrounded values of the 1.3 µM column

Row | Substance | Log Count Rate [1, 5] | Log Count Rate ([1]; Fig S8 panels B, D) | Count Rate [1, 6] | Zeta Count Rate Category [1, 8] | Zeta Count Rate / kcps [1, 10] [kcps] | FTIR ß-sheet content/ % ([2]; ATR-FT-IR) | Zeta category ( +1 = if > 4 mV;-1 = if < -4 mV; 0 = -4mV to 4 mV) [3] | Zeta category ( +1 = if > 4 mV;-1 = if < -4 mV; 0 = -4mV to 4 mV) ([3]; category from zeta potential) | Zeta Pot. / mV ([3]; mean, Std Zeta in next column) [mV] | Zeta-pot. / mV [3] [mV] | Log10 of Rel to EFC (Feb2021) [4, 12] | Rel-to EFC (Feb-2021) [4, 17] | Rel-to EFC (Feb-2021) [4, 18] | Rel-to EFC [4, 19] | n-fold to virus [4, 20] | infectivity [4, 21] | Log10 Inf. rel. to EF-C [4] | infectivity [4, 22] | Zeta Count Rate / kcps [1, 24] [kcps] | FTIR ß-sheet content/ % [2] [%] | also measured
1 | KIKIQIC [TM112 / CN11] | 2.992 | 2.992 | 980.67 | 1 | 980.7 | 53% and 52.93% | 1 (+1 = if > 4 mV) | 1 (+1 = if > 4 mV) | 19.93 | 19.93 | -0.2164 | 0.6076 | 0.6076 | 0.6076 | 25.53 | medium | -0.2164 |  |  |  | Zeta Count Rate Category ([1]; category 1 / 0, no key given): 1; Zeta Count Rate Category [1, 7]: 1; Zeta Count Rate / kcps [1, 9]: 980.7 kcps; Zeta Pot. / mV [3]: 19.93 mV; Zeta category ( +1 = if > 4 mV;-1 = if < -4 mV; 0 = -4mV to 4 mV) [3, 11]: 1 (+1 = if > 4 mV); Absolute Infectivity / RLU /s (Feb2021) [4, 13]: 9447 RLU /s; Rel-to EFC (Feb-2021) [4, 14]: 0.6076; n-fold to virus (Feb2021) [4, 15]: 25.53; Log10 of Rel to EFC (Feb2021) [4, 16]: -0.2164
2 | KIKIKIKIYYYY [JR7] |  |  |  |  | 9918 | 0% |  |  | 13.3 | 13.3 | 0.1402 |  |  |  |  |  | 0.1402 | high |  |  | Zeta Count Rate Category [1, 7]: 1; Zeta category ( +1 = if > 4 mV;-1 = if < -4 mV; 0 = -4mV to 4 mV) [3, 11]: 1 (+1 = if > 4 mV); Rel-to EFC (Feb-2021) [4, 14]: 1.381
3 | CKIKQIINMWQ [MG5a / CK17] | 3.92 | 3.92 | 8316.83 | 1 | 8317 | 51% | 1 (+1 = if > 4 mV) | 1 (+1 = if > 4 mV) | 13.4 | 13.4 | 0.09484 | 1.244 | 1.244 | 1.244 | 52.27 |  | 0.09484 | high | 8317 | 51 | Zeta Count Rate Category ([1]; category 1 / 0, no key given): 1; Zeta Count Rate / kcps [1, 23]: 8317 kcps; Zeta Count Rate / kcps [1, 9]: 8317 kcps; Zeta Count Rate Category ([1]; key not given): 1; Zeta Pot. / mV [3]: 13.4 mV; Zeta Pot. / mV ([3]; mean, Std in separate column): 13.4 mV; Absolute Infectivity / RLU /s (Feb2021) [4, 13]: 23696.66667 RLU /s; n-fold to virus (Feb2021) [4, 15]: 52.27; n-fold to virus (Feb2021) [4, 25]: 52.27; Log10 of Rel to EFC (Feb2021) [4, 26]: 0.09484; Rel-to EFC (Feb-2021) [4, 27]: 1.244; Rel-to EFC (Feb-2021) [4, 28]: 1.244; n-fold to virus (Feb2021) [4, 29]: 52.27; Log10 of Rel to EFC (Feb2021) [4, 30]: 0.09484
4 | KAKAQANMWQ [JG3] |  |  |  | 0 | 56.17 | 43% and 42.81% | -1 (-1 = if < -4 mV) | -1 (-1 = if < -4 mV) | -19.63 | -19.63 | -2.146 | 0.007152 | 0.007152 |  |  | low | -2.146 |  | 56.17 | 42.81 | Zeta Count Rate Category ([1]; category 1/0, no key printed): 0; Zeta Pot. / mV ([3]; mean, Std in separate column): -19.63 mV; n-fold to virus (Feb2021) [4, 31]: 0.3005; Absolute Infectivity / RLU /s (Feb2021) [4, 32]: 193.3 RLU /s; n-fold to virus (Feb2021) [4, 25]: 0.3005; Log10 of Rel to EFC (Feb2021) [4, 26]: -2.146; Rel-to EFC (Feb-2021) [4, 27]: 0.007152
5 | CHLHLQL [CN9] | 3.062 | 3.062 | 1154.63 |  | 1155 | 49.52% | -1 (-1 = if < -4 mV) |  | -12.27 | -12.27 |  |  | 0.09822 | 0.09822 | 4.127 | low | -1.008 |  |  |  | Zeta Count Rate Category ([1]; category 1/0, no key printed): 1; n-fold to virus (Feb2021) [4, 31]: 4.127; Log10 of Rel to EFC (Feb2021) [4, 16]: -1.008; Absolute Infectivity / RLU /s (Feb2021) [4, 32]: 2934 RLU /s
6 | CKFKFQFNM [BL3] | 3.347 | 3.347 | 2223.63 | 1 | 2224 | 41% | 1 (+1 = if > 4 mV) | 1 (+1 = if > 4 mV) | 15.13 | 15.13 | 0.09417 | 1.242 | 1.242 | 1.242 | 52.19 | high | 0.09417 | high | 2224 | 41 | Zeta Count Rate Category ([1]; category 1/0, no key printed): 1; Zeta Pot. / mV ([3]; mean, Std in separate column): 15.13 mV; n-fold to virus (Feb2021) [4, 31]: 52.19; Absolute Infectivity / RLU /s (Feb2021) [4, 32]: 28183.33333 RLU /s; n-fold to virus (Feb2021) [4, 25]: 52.19; Log10 of Rel to EFC (Feb2021) [4, 26]: 0.09417; Rel-to EFC (Feb-2021) [4, 27]: 1.242
7 | CKIKIQI [MG3b] | 3.386 | 3.386 | 2432.9 | 1 | 2432.9 | 53% | 1 (+1 = if > 4 mV) | 1 (+1 = if > 4 mV) | 12.8 | 12.8 | 0.008101 | 1.019 | 1.019 | 1.019 | 42.81 |  | 0.0081 | high | 2432.9 | 53 | Zeta Count Rate Category ([1]; category 1/0, no key printed): 1; Zeta Count Rate Category [1, 7]: 1; Zeta Count Rate / kcps [1, 23]: 2432.9 kcps; Zeta Count Rate Category ([1]; key not given): 1; Zeta category ( +1 = if > 4 mV;-1 = if < -4 mV; 0 = -4mV to 4 mV) ([3]; FigS26): 1 (+1 = if > 4 mV); Zeta category ( +1 = if > 4 mV;-1 = if < -4 mV; 0 = -4mV to 4 mV) [3, 11]: 1 (+1 = if > 4 mV); Zeta Pot. / mV ([3]; mean, Std in separate column): 12.8 mV; n-fold to virus (Feb2021) [4, 31]: 42.81; Rel-to EFC (Feb-2021) [4, 14]: 1.019; Log10 of Rel to EFC (Feb2021) [4, 16]: 0.008101; Absolute Infectivity / RLU /s (Feb2021) [4, 32]: 19406.66667 RLU /s; n-fold to virus (Feb2021) [4, 25]: 42.81; Log10 of Rel to EFC (Feb2021) [4, 26]: 0.008101; Rel-to EFC (Feb-2021) [4, 27]: 1.019; Rel-to EFC (Feb-2021) [4, 28]: 1.019; n-fold to virus (Feb2021) [4, 29]: 42.81; Log10 of Rel to EFC (Feb2021) [4, 30]: 0.008101
